From patent publication US20040242660A1, “Substituted oxazolidinones for combinational therapy” (priority 2001, published 2004)

Each compound was assayed against human factor Xa (FXa) (Homo sapiens, UniProt P00742) (assay: Measurement of factor Xa inhibition (chromogenic substrate)). Conditions: not given.
Assay type: biochemical
Experimental: a.1) Measurement of Factor Xa Inhibition
In this case, factor Xa eliminates p-nitroaniline from the chromogenic substrate.
The test substances were dissolved in various concentrations in DMSO and incubated with human FXa (0.5 nmol/l dissolved in 50 mmol/l tris buffer [C,C,C-tris(hydroxymethyl)-aminomethane], 150 mmol/l NaCl, 0.1% BSA (bovine serum albumine), pH=8,3) at 25° C. for 10 minutes. Pure DMSO serves as control.

human factor Xa (FXa), sequence (P00742 235-488 limits assumed): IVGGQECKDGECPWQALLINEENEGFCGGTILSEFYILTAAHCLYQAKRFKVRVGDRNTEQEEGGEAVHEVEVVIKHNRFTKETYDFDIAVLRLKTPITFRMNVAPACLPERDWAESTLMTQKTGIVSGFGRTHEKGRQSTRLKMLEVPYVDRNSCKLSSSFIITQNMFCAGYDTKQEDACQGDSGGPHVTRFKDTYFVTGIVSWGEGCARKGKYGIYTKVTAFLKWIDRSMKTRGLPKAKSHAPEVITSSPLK
human factor Xa (FXa), sequence (P00742 41-179 partner limits assumed): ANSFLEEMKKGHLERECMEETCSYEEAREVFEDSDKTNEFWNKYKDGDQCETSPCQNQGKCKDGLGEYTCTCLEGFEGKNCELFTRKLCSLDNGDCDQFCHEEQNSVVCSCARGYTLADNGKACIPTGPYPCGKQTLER

| IC50 [nM] | SMILES |
| --- | --- |
| 13 | NC1CCN(c2ccc(N3CC(CNC(=O)c4ccc(Cl)s4)OC3=O)cc2F)C1 (stereo not shown) [Example 126] |
| 0.7 | O=C(NC[C@H]1CN(c2ccc(N3CCOCC3=O)c(F)c2)C(=O)O1)c1ccc(Br)s1 [Example 127] |
| 2 | O=C(NC[C@H]1CN(c2ccc(N3CCCC3=O)c(F)c2)C(=O)O1)c1ccc(Br)s1 [Example 128] |
| 1 | O=C(NC[C@H]1CN(c2ccc(N3CCCCC3=O)cc2)C(=O)O1)c1ccc(Br)s1 [Example 129] |
| 3.3 | O=C(NC[C@H]1CN(c2ccc(N3CCCC3=O)c(F)c2)C(=O)O1)c1ccc(Cl)s1 [Example 130] |
| 850 | O=C(NCC1CN(c2ccc(C3CCCCC3)cc2)C(=O)O1)c1ccc(Cl)s1 (stereo not shown) [Example 131] |
| 120 | O=C(NCC1CN(c2ccc(N3CCC3)c(F)c2)C(=O)O1)c1ccc(Cl)s1 (stereo not shown) [Example 132] |
| 62 | O=C(NCC1CN(c2ccc(N3CCC(O)C3)c(F)c2)C(=O)O1)c1ccc(Cl)s1 (stereo not shown) [Example 133] |
| 480 | O=C(NCC1CN(c2ccc(N3CCCC(O)C3)c(F)c2)C(=O)O1)c1ccc(Cl)s1 (stereo not shown) [Example 134] |
| 1100 | CC(C)(C)OC(=O)NC1CCCN(c2ccc(N3CC(CNC(=O)c4ccc(Cl)s4)OC3=O)cc2F)C1 (stereo not shown) [Example 135] |
| 1200 | CC1(N)CCN(c2ccc(N3CC(CNC(=O)c4ccc(Cl)s4)OC3=O)cc2F)CC1 (stereo not shown) [Example 136] |
| 44 | NC1CCCN(c2ccc(N3CC(CNC(=O)c4ccc(Cl)s4)OC3=O)cc2F)C1 (stereo not shown) [Example 137] |
| 420 | O=C(NCC1CN(c2ccc(NCCCO)cc2)C(=O)O1)c1ccc(Cl)s1 (stereo not shown) [Example 138] |
| 1700 | O=C(NCC1CN(c2ccc(-n3cccc3)cc2)C(=O)O1)c1ccc(Cl)s1 (stereo not shown) [Example 139] |

Same assay, conditions: factor Xa inhibition

| IC50 [nM] | SMILES |
| --- | --- |
| 1100 | O=C(NC[C@H]1CN(c2ccc(N3CC[S+]([O-])CC3)c(F)c2)C(=O)O1)c1ccc(Cl)s1 [Example 14, 5-Chloro-N-({(5S)-3-[3-fluoro-4-(1-oxo-1[lambda]^4,4-thiazinan-4-yl)phenyl]-2-oxo-1,3-oxazolidin-5-yl}methyl)-2-thiophenecarboxamide] |
| 210 | O=C(NC[C@H]1CN(c2ccc(N3CCS(=O)(=O)CC3)c(F)c2)C(=O)O1)c1ccc(Cl)s1 [Example 15, 5-chloro-N-({(5S)-3-[4-(1,1-dioxo-1[lambda]^6,4-thiazinan-4-yl)-3-fluorophenyl]-2-oxo-1,3-oxazolidin-5-yl}methyl)-2-thiophenecarboxamide] |
| 40 | O=C(NC[C@H]1CN(c2ccc(N3CCCC3)cc2)C(=O)O1)c1ccc(Cl)s1 [Example 18, 5-Chloro-N-({(5S)-2-oxo-3-[4-(1-pyrrolidinyl)phenyl]-1,3-oxazolidin-5-yl}methyl)-2-thiophenecarboxamide] |
| 270 | CCN(CC)c1ccc(N2C[C@H](CNC(=O)c3ccc(Cl)s3)OC2=O)cc1 [Example 19, 5-Chloro-N-({(5S)-2-oxo-3-[4-(diethylamino)phenyl]-1,3-oxazolidin-5-yl}methyl)-2-thiophenecarboxamide] |
| 33 | O=C(NC[C@H]1CN(c2ccc(N3CCOCC3)c(Cl)c2)C(=O)O1)c1ccc(Cl)s1 [Example 37, 5-Chloro-N-{[(5S)-3-(3-chloro-4-morpholinophenyl)-2-oxo-1,3-oxazolidin-5-yl]methyl}-2-thiophenecarboxamide] |
| 2000 | O=C(NC[C@H]1CN(c2ccc(S(=O)(=O)N3CCOCC3)cc2)C(=O)O1)c1ccc(Cl)s1 [Example 38, 5-Chloro-N-({(5S)-3-[4-(4-morpholinylsulfonyl)phenyl]-2-oxo-1,3-oxazolidin-5-yl}methyl)-2-thiophenecarboxamide] |
| 840 | O=C(NC[C@H]1CN(c2ccc(S(=O)(=O)N3CCC3)cc2)C(=O)O1)c1ccc(Cl)s1 [Example 39, 5-Chloro-N-({(5S)-3-[4-(1-azetidinylsulfonyl)phenyl]-2-oxo-1,3-oxazolidin-5-yl}methyl)-2-thiophenecarboxamide] |
| 90 | CN(C)S(=O)(=O)c1ccc(N2C[C@H](CNC(=O)c3ccc(Cl)s3)OC2=O)cc1 [Example 40, 5-Chloro-N-[((5S)-3-{4-[(dimethylamino)sulfonyl]phenyl}-2-oxo-1,3-oxazolidin-5-yl)methyl]-2-thiophenecarboxamide] |
| 1300 | O=C(NCC1CN(c2ccc(N3CCCC3=O)cc2)C(=O)O1)c1cccs1 (stereo not shown) [Example 41, N-({2-oxo-3-[4-(2-oxo-1-pyrrolidinyl)phenyl]-1,3-oxazolidin-5-yl}methyl)-2-thiophenecarboxamide] |
| 160 | Cc1ccc(C(=O)NCC2CN(c3ccc(N4CCCC4=O)cc3)C(=O)O2)s1 (stereo not shown) [Example 42, 5-Methyl-N-({2-oxo-3-[4-(2-oxo-1-pyrrolidinyl)phenyl]-1,3-oxazolidin-5-yl}methyl)-2-thiophenecarboxamide] |
| 14 | O=C(NCC1CN(c2ccc(N3CCCC3=O)cc2)C(=O)O1)c1ccc(Br)s1 (stereo not shown) [Example 43, 5-Bromo-N-({2-oxo-3-[4-(2-oxo-1-pyrrolidinyl)phenyl]-1,3-oxazolidin-5-yl}methyl)-2-thiophenecarboxamide] |
| 2000 | O=C(NCC1CN(c2ccccc2)C(=O)O1)c1ccc(Cl)s1 (stereo not shown) [Example 96, 5-Chloro-N-[(2-oxo-3-phenyl-1,3-oxazolidin-5-yl)methyl]-2-thiophenecarboxamide] |
| 50 | CC(=O)N(c1ccc(N2CC(CNC(=O)c3ccc(Cl)s3)OC2=O)cc1)C1CC1 (stereo not shown) [Example 98, N-[(3-{4-[Acetyl(cyclopropyl)amino]phenyl}-2-oxo-1,3-oxazolidin-5-yl)methyl]-5-chloro-2-thiophenecarboxanmide] |
| 2200 | NCc1ccc(N2CC(CNC(=O)c3ccc(Cl)s3)OC2=O)cc1 (stereo not shown) [Example 148, N-({3-[4-(Aminomethyl)phenyl]-2-oxo-1,3-oxazolidin-5-yl}methyl)-5-chloro-2-thiophenecarboxamide] |
| 2000 | Nc1ccc(N2CC(CNC(=O)c3ccc(Cl)s3)OC2=O)cc1 (stereo not shown) [Example 149, N-{[3-(4-Aminophenyl)-2-oxo-1,3-oxazolidin-5-yl]methyl}-5-chloro-2-thiophenecarboxamide] |
| 2000 | NCC(=O)Nc1ccc(N2CC(CNC(=O)c3ccc(Cl)s3)OC2=O)cc1 (stereo not shown) [Example 150, 5-Chloro-N-({3-[4-(glycylamino)phenyl]-2-oxo-1,3-oxazolidin-5-yl}methyl)-2-thiophenecarboxamide] |
| 2000 | NCC1CN(c2ccc(N3CCCC3=O)cc2)C(=O)O1 (stereo not shown) [Example 151, 5-(Aminomethyl)-3-[4-(2-oxo-1-pyrrolidinyl)phenyl]-1,3-oxazolidin-2-one] |
| 600 | CC(=O)NCc1ccc(N2CC(CNC(=O)c3ccc(Cl)s3)OC2=O)cc1 (stereo not shown) [Example 153, N-[(3-{4-[(Acetylamino)methyl]phenyl}-2-oxo-1,3-oxazolidin-5-yl)methyl]-5-chloro-2-thiophenecarboxamide] |
| 1300 | NC(=O)NCc1ccc(N2CC(CNC(=O)c3ccc(Cl)s3)OC2=O)cc1 (stereo not shown) [Example 154, N-{[3-(4-{[(Aminocarbonyl)amino]methyl}phenyl)-2-oxo-1,3-oxazolidin-5-yl]-methyl}-5-chloro-2-thiophenecarboxamide] |
| 1200 | CC(=O)Nc1ccc(N2CC(CNC(=O)c3ccc(Cl)s3)OC2=O)cc1 (stereo not shown) [Example 155, N-({3-[4-(Acetylamino)phenyl]-2-oxo-1,3-oxazolidin-5-yl}methyl)-5-chloro-2-thiophenecarboxamide] |
| 1300 | O=C(Nc1ccc(N2CC(CNC(=O)c3ccc(Cl)s3)OC2=O)cc1)c1cccs1 (stereo not shown) [Example 156, 5-Chloro-N-[(2-oxo-3-{4-[(2-thienylcarbonyl)amino]phenyl}-1,3-oxazolidin-5-yl)methyl]-2-thiophenecarboxamide] |
| 730 | COCC(=O)Nc1ccc(N2CC(CNC(=O)c3ccc(Cl)s3)OC2=O)cc1 (stereo not shown) [Example 157, 5-Chloro-N-[(3-{4-[(methoxyacetyl)amino]phenyl}-2-oxo-1,3-oxazolidin-5-yl)-methyl]-2-thiophenecarboxamide] |
| 460 | Cc1noc(C)c1C(=O)Nc1ccc(N2CC(CNC(=O)c3ccc(Cl)s3)OC2=O)cc1 (stereo not shown) [Example 158, N-{4-[5-({[(5-Chloro-2-thienyl)carbonyl]amino}methyl)-2-oxo-1,3-oxazolidin-3-yl]phenyl}-3,5-dimethyl-4-isoxazolecarboxamide] |
| 1700 | O=C(NCC1CN(c2ccc(NS(=O)(=O)CCCCl)cc2)C(=O)O1)c1ccc(Cl)s1 (stereo not shown) [Example 159, 5-Chloro-N-{[3-(4-{[(3-chloropropyl)sulfonyl]amino}phenyl)-2-oxo-1,3-oxazolidin-5-yl]methyl}-2-thiophenecarboxamide] |
| 140 | O=C(NCC1CN(c2ccc(N3CCCS3(=O)=O)cc2)C(=O)O1)c1ccc(Cl)s1 (stereo not shown) [Example 160, 5-Chloro-N-({3-[4-(1,1-dioxido-2-isothiazolidinyl)phenyl]-2-oxo1,3-oxazolidin-5-yl}methyl)-2-thiophenecarboxamide] |

Same assay, conditions: table of Examples 48-58

| IC50 [nM] | SMILES |
| --- | --- |
| 1150 | CC1Oc2cc(N3C[C@H](CNC(=O)c4ccc(Cl)s4)OC3=O)ccc2N(C)C1=O (stereo partly shown) [Example 50] |
| 1190 | CN1C(=O)COc2cc(N3C[C@H](CNC(=O)c4ccc(Cl)s4)OC3=O)ccc21 [Example 51] |
| 740 | O=C(NC[C@H]1CN(c2ccc3c(c2)OCc2nccn2-3)C(=O)O1)c1ccc(Cl)s1 [Example 53] |
| 130 | N#Cc1cc(N2C[C@H](CNC(=O)c3ccc(Cl)s3)OC2=O)ccc1N1CCCC1 [Example 54] |
| 40 | O=C(NC[C@H]1CN(c2ccc(N3CCOC3=O)cc2)C(=O)O1)c1ccc(Cl)s1 [Example 55] |
| 4 | O=C(NC[C@H]1CN(c2ccc(N3CCCC3=O)cc2)C(=O)O1)c1ccc(Br)s1 [Example 56] |
| 580 | Cc1ccc(C(=O)NC[C@H]2CN(c3ccc(N4CCCC4=O)cc3)C(=O)O2)s1 [Example 57] |
